# Measured values taken from patent US9557319B2, “Cell-based arrays, methods of making, and methods of using” (University of Florida Research Foundation, Inc., priority 2010, dated 2017).
# Like-named read-outs stand apart in the source and are kept apart here. Marks after values point to notes of the source that are not given here.
# Key:
# [1] = Drug release from microarrayed drug-loaded EVA islands; assay type: physicochemical; details: release from drug-loaded EVA microarray, followed by steady release
# Procedure: For drug release studies, polymer formulations were again made as described above. Glass coverslips were weighed prior to printing. Arrays consisting of 900 drug-loaded polymer islands were manufactured and allowed to dry overnight. Samples were weighed and placed in 3 ml of PBS containing 0.1% Tween-80 at 37° C. with gentle agitation. Samples were taken at the specified times and analyzed.
# HCT116 cells [2] = experiment: HCT116 proliferation (BrdU) on drug-eluting cellular microarray; assay type: cell-based, human; details: for drug sensitivity (1/D50) / Emax: non-proliferation, 24 h
# From the text: Glass coverslips were cleaned in an oxygen plasma etcher (Terra Universal, Fullerton, Calif.). Arrays of isolated spots of (3-Aminopropyl) trimethoxysilane (NH2-terminated silane) (Sigma-Aldrich, St. Louis, Mo.) were robotically printed on clean coverslips using a Calligrapher Miniarrayer printer (Bio-Rad, Hercules, Calif.) with 1500 μm center to center distances and a pin diameter of 400 μm. The silane printed coverslips were then coated with 175 Å of titanium (Ti; 99.995% pure) and 225 Å of gold (Au; 99.999% pure) (Williams Advanced Materials, Buffalo, N.Y.). Following coating, gold-coated arrays were sonicated to remove gold from the amine spots, exposing NH2-terminated silane islands. The coverslips were incubated with 0.1 M, methyl-terminated alkanethiol (CH3(CH2)11SH) (Sigma) for 30 min. Substrates were incubated in 10% Pluronic® F-127 (BASF Corporation, USA) for 3 h and 1% heat-denatured BSA for 30 min to create a non-fouling surface around the adhesive amine islands. Three layers of the drug-loaded ethylene vinyl acetate (EVA) polymers were printed over the amine islands and placed in a desiccator between each successive layer. Poly-d-lysine (0.1%) was over-spotted onto the EVA films to promote cell attachment. […] Schematic diagrams of the arrays are illustrated in FIGS. 6A and 6B.
# HCT116 (p53+/+, ATCC, Manassas, Va.) human colon cancer cells were maintained in McCoy's 5a Medium supplemented with 10% fetal bovine serum (Thermo Scientific, Waltham, Mass.), 1% penicillin G and 1% streptomycin (Thermo Scientific). The cells were cultured at 37° C. in a humidified incubator containing 5% CO2. Following microarray fabrication, 100,000 HCT116 cells were seeded over each array in 3 ml serum-free media and allowed to incubate on a rocking plate at room temperature until cell attachment to the EVA islands occurred, with minimal attachment to background, typically 10-15 min. Microarrays were gently washed in PBS, placed in a 35 mm petri dish with complete media, and placed in an incubator for 24-72 h.
# (§1) Camptothecin-loaded microarrays were stained with Annexin V (BD Pharminigen), fixed in 4% paraformaldehyde, and placed in PBS with Hoechst dye 34580 (Invitrogen, USA) for 30 min. Azide-loaded microarrays were fixed with 4% paraformaldehyde and incubated with PBS containing Hoechst 34580 dye. Finally, nutlin-3a-loaded microarrays were fixed with 4% paraformaldehyde, stained with BrdU (BD Bioscience, San Jose, Calif.), and incubated in PBS containing Hoechst 34580 dye. All arrays were mounted with Fluoro-Gel (Electron Microscope Sciences, Hatfield, Pa.) and imaged using an Axiovert 200M microscope (Carl Zeiss, Oberkochen, Germany). Analysis was performed with Axiovision (Carl Zeiss, Oberkochen, Germany) by quantifying, in each drug-eluting island, the area of fluorescence and reported as relative fluorescence intensity (RFI).
# (§2) Proliferation values were normalized to control (0 μM drug). Values for concentration-response curves were transformed to non-proliferation by subtracting the normalized value from 100%. Curve fitting analysis was performed to obtain Emax and D50 values using the equation E=E0+(Emax×D)/(D+D50) where E is the effect (either non-proliferation or apoptosis), E0 is the initial value, Emax is the maximum effect, D is the dose, and D50 is the dose at which a 50% maximum effect (Emax) is observed^34. Drug sensitivity values were obtained by taking the inverse of the D50 and multiplying by 100. Those values marked with “#” indicate that the r^2 value of the curve-fit was below 0.65. N/A values are present where negative parameters were obtained.
# Hyperbolic curve fits were generated for the dose responses from a first drug in the presence of a fixed amount of a second drug for each combination (Tables 2 and 3, below). […]
# CA2 CCSCs = experiment: CA2 patient-derived CCSC proliferation on drug-eluting microarray; assay type: cell-based, human; details: for proliferation with increasing drug exposure: CA2 cells, single drug; for drug sensitivity (1/D50) / Emax: non-proliferation
# Procedure: ALDH^high spheres were generated from tumor cells obtained from patients with colon cancer. Isolated cells were cultured in serum-free media as previously described^14 (reference 14 is hereby incorporated by reference herein with respect to methods for culturing cells in serum-free media). Using these cultures, adherent cell growth was established with 0.1% gelatin (Millipore) coatings on tissue culture plates (TPP, Switzerland) and the cells were serially propagated. For CA1 and CA2 cells, 25,000 cells were tested per array. Cells were seeded in PBS with 0.1% gelatin and treated identically to the microarrays with HCT116.
# as §1, §2
# HCT116 cells [3] = experiment: Proliferation of HCT116 cells incubated with soluble drugs in 96-well plates; assay type: cell-based, human; details: soluble drug, 24 h
# Procedure: FIGS. 12A-12D are a series of graphs illustrating apoptosis and proliferation dose-response curves from HCT116 cells incubated with soluble drugs. FIG. 12A illustrates the percent of apoptotic HCT116 cells incubated 24 h with soluble nutlin-3a. […] Significant differences were determined by ANOVA, {F(5,282)=19.694, p<0.05}, followed by Tukey's post-hoc analysis. FIG. 12C illustrates the percent of non-proliferating HCT116 cells incubated 24 h with soluble nutlin-3a. Significant differences were determined by ANOVA, {F(4,226)=12.643, p<0.05}, followed by Tukey's post-hoc analysis. […] Significant differences were determined by ANOVA, {F(5,252)=102.485, p<0.05}, followed by Tukey's post-hoc analysis. (*: p<0.05 compared to all other conditions, #:p<0.05 from all conditions marked *).
# Results were corroborated using soluble drugs in 96-well plates (FIGS. 12A-D).
# [4] = Nutlin dose response, 2nd drug CPT 1 μM
# [5] = Nutlin dose response, 2nd drug CPT 10 μM
# [6] = Nutlin dose response, 2nd drug CPT 0 μM, CA2
# [7] = Nutlin dose response, 2nd drug CPT 1 μM, CA2
# [8] = Nutlin dose response, 2nd drug CPT 10 μM, CA2
# [9] = Nutlin dose response, 2nd drug CPT 50 μM, CA2
structure (smiles),measurement,setting,value
CC[C@@]1(O)C(=O)OCc2c1cc1n(c2=O)Cc2cc3ccccc3nc2-1 [Camptothecin],burst release duration,[1],approximately 24 h
same,increase in sensitivity to camptothecin in presence of nutlin-3a,"HCT116 cells [2]; 125 μM nutlin compared to 0 μM nutlin, HCT116 proliferation",over 16 fold
same,drug sensitivity (1/D50),"HCT116 cells [2]; Camptothecin dose response, 2nd drug NUT 0 μM",4.83 +/− 0.54*
same,drug sensitivity (1/D50),"HCT116 cells [2]; Camptothecin dose response, 2nd drug NUT 0 μM, listed as camptothecin",4.83
same,drug sensitivity (1/D50),"HCT116 cells [2]; Camptothecin dose response, 2nd drug NUT 1 μM",5.65 +/− 5.2
same,drug sensitivity (1/D50),"HCT116 cells [2]; Camptothecin dose response, 2nd drug NUT 25 μM",12.1 +/− 18
same,drug sensitivity (1/D50),"HCT116 cells [2]; Camptothecin dose response, 2nd drug NUT 125 μM",78.1 +/− 26*
same,drug sensitivity (1/D50),"HCT116 cells [2]; Camptothecin dose response, 2nd drug NUT 125 μM, listed as camptothecin",78.1
same,Emax,"HCT116 cells [2]; Homo sapiens, HCT-116, 24 h, Camptothecin dose response, 2nd drug NUT 0 μM, read-out: Emax",86.4%
same,Emax,"HCT116 cells [2]; Homo sapiens, HCT-116, 24 h, Camptothecin dose response, 2nd drug NUT 1 μM, read-out: Emax",88.8%
same,Emax,"HCT116 cells [2]; Homo sapiens, HCT-116, 24 h, Camptothecin dose response, 2nd drug NUT 25 μM, read-out: Emax",86.3%
same,Emax,"HCT116 cells [2]; Homo sapiens, HCT-116, 24 h, Camptothecin dose response, 2nd drug NUT 125 μM, read-out: Emax",79.1%
same,proliferation with increasing drug exposure,CA2 CCSCs,decreasing proliferation
same,drug sensitivity (1/D50),"CA2 CCSCs; Camptothecin dose response, 2nd drug NUT 0 μM, CA2",133 +/− 5.3* ^
same,drug sensitivity (1/D50),"CA2 CCSCs; Camptothecin dose response, 2nd drug NUT 1 μM, CA2",1.60 +/− 7.9* ^
same,drug sensitivity (1/D50),"CA2 CCSCs; Camptothecin dose response, 2nd drug NUT 125 μM, CA2",0.00 +/− 1.01^#
same,Emax,"CA2 CCSCs; Homo sapiens, Camptothecin dose response, 2nd drug NUT 0 μM, CA2, read-out: Emax",46.6%
same,Emax,"CA2 CCSCs; Homo sapiens, Camptothecin dose response, 2nd drug NUT 1 μM, CA2, read-out: Emax",52.3%
same,Emax,"CA2 CCSCs; Homo sapiens, Camptothecin dose response, 2nd drug NUT 25 μM, CA2, read-out: Emax",43.9%
same,effect on reducing proliferation of HCT116 cells,HCT116 cells [3],dose-dependent effect
COc1ccc(C2=N[C@@H](c3ccc(Cl)cc3)[C@@H](c3ccc(Cl)cc3)N2C(=O)N2CCNC(=O)C2)c(OC(C)C)c1 [Nutlin-3a],burst release duration,[1],approximately 8 h
same,increase in sensitivity to nutlin-3a on addition of camptothecin,"HCT116 cells [2]; 50 μM CPT compared to 0 μM CPT, HCT116 proliferation",over 5 fold
same,cell cycle arrest (ratio of non-proliferating cells) on single-drug microarray,"HCT116 cells [2]; HCT116, 24 h",dose-dependent cell cycle arrest
same,Emax,"HCT116 cells [2]; Nutlin dose response, 2nd drug CPT 0 μM",108 +/− 110
same,drug sensitivity (1/D50),"HCT116 cells [2]; Nutlin dose response, 2nd drug CPT 0 μM, listed as Nutlin",3.00 +/− 0.49*
same,drug sensitivity (1/D50),"HCT116 cells [2]; Nutlin dose response, 2nd drug CPT 0 μM, listed as nutlin-3a",3.0
same,Emax,HCT116 cells [2]; [4],96.1 +/− 25
same,drug sensitivity (1/D50),HCT116 cells [2]; [4],1.78 +/− 1.7
same,Emax,HCT116 cells [2]; [5],86.5 +/− 19
same,drug sensitivity (1/D50),HCT116 cells [2]; [5],2.97 +/− 3.7
same,Emax,"HCT116 cells [2]; Nutlin dose response, 2nd drug CPT 50 μM",81.4 +/− 1.9
same,drug sensitivity (1/D50),"HCT116 cells [2]; Nutlin dose response, 2nd drug CPT 50 μM, listed as Nutlin",19.6 +/− 12
same,drug sensitivity (1/D50),"HCT116 cells [2]; Nutlin dose response, 2nd drug CPT 50 μM, listed as nutlin-3a",19.6
same,decrease in Emax of the concentration response curve to nutlin-3a,"CA2 CCSCs; 50 μM camptothecin present vs nutlin-3a alone, CA2, not significant (p=0.097)",53%
same,proliferation with increasing drug exposure,CA2 CCSCs,decreasing proliferation
same,Emax,CA2 CCSCs; [6],73.3 +/− 9.3*
same,drug sensitivity (1/D50),CA2 CCSCs; [6],171 +/− 49 ^
same,Emax,CA2 CCSCs; [7],43.8 +/− 11
same,drug sensitivity (1/D50),CA2 CCSCs; [7],189 +/− 328 ^
same,Emax,CA2 CCSCs; [8],57.0 +/− 39
same,drug sensitivity (1/D50),CA2 CCSCs; [8],0.95 +/− 4.6^#
same,Emax,CA2 CCSCs; [9],34.1 +/− 9.3*
same,drug sensitivity (1/D50),CA2 CCSCs; [9],303 +/− 260 ^
same,effect on reducing proliferation of HCT116 cells,HCT116 cells [3],dose-dependent effect
